The values below come from EP1953147A1, “HETEROCYCLIC COMPOUND AND MEDICINAL APPLICATION THEREOF” (priority 2005, dated 2007).

The test system of this test is ΔG/SEAP/HCV E1E2. Briefly: Effect of test substance on cell infection with HCV pseudotype virus (SEAP reporter assay in HepG2 cells). Conditions: Hepatitis C virus. Type of test: cell-based. In general terms: Reporter assays use an easily measured gene product as a stand-in for the process of interest.

pIC50: −log10 of the molar value. Where a name gives a salt, the structure may show the parent alone.

As to `COc1cncc(-c2nn(-c3cc(N4CC[C@H](O)C4)ccc3C(F)(F)F)c(=O)c3c2CCC3)c1` [Example 45, 2-[5-((S)-3-hydroxy-pyrrolidin-1-yl)-2-trifluoromethyl-phenyl]-4-(5-methoxy-pyridin-3-yl)-2,5,6,7-tetrahydro-cyclopenta[d]pyridazin-1-one], the pIC50 was above 7.00.

As for `CNC(=O)CNc1ccc(C(F)(F)F)c(-n2nc(-c3cc(OC)cc(OC)c3)c3c(c2=O)CCC3)c1` [Example 124, 2-{3-[4-(3,5-dimethoxy-phenyl)-1-oxo-1,5,6,7-tetrahydro-cyclopenta[d]pyridazin-2-yl]-4-trifluoromethyl-phenylamino}-N-methyl-acetamide], the pIC50 is above 7.00. Take `COc1cc(OC)cc(-c2nn(-c3cc(-c4cccnn4)ccc3C(F)(F)F)c(=O)c3c2CC(C)N3)c1` (stereo not shown) [Example 19, 4-(3,5-dimethoxy-phenyl)-2-methyl-6-(5-pyridazin-3-yl-2-trifluoromethyl-phenyl)-1,2,3,6-tetrahydro-pyrrolo[2,3-d]pyridazin-7-one]: the pIC50 was above 7.00. As for `COc1cc(OC)cc(-c2nn(-c3cc(NCCCO)ccc3C(F)(F)F)c(=O)c3c2CCC3)c1` [Example 130, 4-(3,5-dimethoxy-phenyl)-2-[5-(3-hydroxy-propylamino)-2-trifluoromethyl-phenyl]-2,5,6,7-tetrahydro-cyclopenta[d]pyridazin-1-one], the figure is above 7.00. `NC(=O)c1ccc(-c2nn(-c3cc(N4CC[C@H](O)C4)ccc3C(F)(F)F)c(=O)c3c2CCC3)cc1` [Example 99, 4-{3-[5-((S)-3-hydroxy-pyrrolidin-1-yl)-2-trifluoromethyl-phenyl]-4-oxo-4,5,6,7-tetrahydro-3H-cyclopenta[d]pyridazin-1-yl}-benzamide] showed a negative-log IC50 (pIC50) of 5.00 to 7.00. The same measure for `CNC(=O)CN1CCc2c(-c3cc(OC)cc(OC)c3)nn(-c3cc(N4CC[C@H](O)C4)ccc3C(F)(F)F)c(=O)c21` [Example 31, 2-{4-(3,5-dimethoxy-phenyl)-6-[5-((S)-3-hydroxy-pyrrolidin-1-yl)-2-trifluoromethyl-phenyl]-7-oxo-2,3,6,7-tetrahydro-pyrrolo[2,3-d]pyridazin-1-yl}-N-methyl-acetamide]: above 7.00; for `CNCCNc1ccc(C(F)(F)F)c(-n2nc(-c3cc(OC)cc(OC)c3)c3c(c2=O)CCC3)c1` [Example 157, 4-(3,5-dimethoxy-phenyl)-2-[5-(2-methylamino-ethylamino)-2-trifluoromethyl-phenyl]-2,5,6,7-tetrahydro-cyclopenta[d]pyridazin-1-one hydrochloride]: 5.00 to 7.00; for `COc1cc(OC)cc(-c2nn(-c3cc(NCC(=O)O)ccc3C(F)(F)F)c(=O)c3c2CCC3)c1` [Example 97, {3-[4-(3,5-dimethoxy-phenyl)-1-oxo-1,5,6,7-tetrahydro-cyclopenta[d]pyridazin-2-yl]-4-trifluoromethyl-phenylamino}-acetic acid]: above 7.00. As for `O=C(O)c1ccc(-c2nn(-c3cc(N4CC[C@H](O)C4)ccc3C(F)(F)F)c(=O)c3c2CCC3)cc1` [Example 80, 4-{3-[5-((S)-3-hydroxy-pyrrolidin-1-yl)-2-trifluoromethyl-phenyl]-4-oxo-4,5,6,7-tetrahydro-3H-cyclopenta[d]pyridazin-1-yl}-benzoic acid], the figure is 5.00 to 7.00; as for `Cc1cc(C)cc(-c2nn(-c3cc(N4CC[C@H](O)C4)ccc3C(F)(F)F)c(=O)c3c2CCC3)c1` [Example 4, 4-(3,5-dimethyl-phenyl)-2-[5-((S)-3-hydroxy-pyrrolidin-1-yl)-2-trifluoromethyl-phenyl]-2,5,6,7-tetrahydro-cyclopenta[d]pyridazin-1-one], above 7.00.

Take `COc1cc(OC)cc(-c2nn(-c3cc(N(C)CCCO)ccc3C(F)(F)F)c(=O)c3c2CCC3)c1` [Example 145, 4-(3,5-dimethoxy-phenyl)-2-{5-[(3-hydroxypropyl)-methyl-amino]-2-trifluoromethyl-phenyl}-2,5,6,7-tetrahydro-cyclopenta[d]pyridazin-1-one]: the pIC50 was above 7.00. Consider `COc1cc(OC)cc(-c2nn(-c3cc(NCCN)ccc3C(F)(F)F)c(=O)c3c2CCC3)c1` [Example 119, 2-[5-(2-amino-ethylamino)-2-trifluoromethylphenyl]-4-(3,5-dimethoxy-phenyl)-2,5,6,7-tetrahydro-cyclopenta[d]pyridazin-1-one hydrochloride], for which the pIC50 was above 7.00.

As to `COc1cc(OC)cc(-c2nn(-c3cc(NCCCN(C)C)ccc3C(F)(F)F)c(=O)c3c2CCC3)c1` [Example 128, 4-(3,5-dimethoxy-phenyl)-2-[5-(3-dimethylamino-propylamino)-2-trifluoromethyl-phenyl]-2,5,6,7-tetrahydro-cyclopenta[d]pyridazin-1-one], the pIC50 was above 7.00. Take `COc1cc(OC)cc(-c2nn(-c3cc(N4CC[C@H](O)C4)ccc3OC)c(=O)c3c2CCC3)c1` [Example 1-15, 4-(3,5-dimethoxy-phenyl)-2-[5-((S)-3-hydroxy-pyrrolidin-1-yl)-2-methoxy-phenyl]-2,5,6,7-tetrahydro-cyclopenta[d]pyridazin-1-one]: the pIC50 is 5.00 to 7.00. The same measure for `COc1cc(OC)cc(-c2nn(-c3cc(N4CC[C@H](O)C4)ccc3C(F)(F)F)c(=O)c3c2CCN3CC#N)c1` [Example 48, {4-(3,5-dimethoxy-phenyl)-6-[5-((S)-3-hydroxy-pyrrolidin-1-yl)-2-trifluoromethyl-phenyl]-7-oxo-2,3,6,7-tetrahydro-pyrrolo[2,3-d]pyridazin-1-yl}-acetonitrile]: above 7.00; for `Cc1cc(C)cc(-c2nn(-c3cc(N4CC[C@H](O)C4)ccc3C(F)(F)F)c(=O)c3c2CC(C)N3)c1` (stereo partly drawn) [Example 1-33, 4-(3,5-dimethyl-phenyl)-6-[5-((S)-3-hydroxy-pyrrolidin-1-yl)-2-trifluoromethyl-phenyl]-2-methyl-1,2,3,6-tetrahydro-pyrrolo[2,3-d]pyridazin-7-one]: above 7.00; for `O=c1c2c(c(C3CCCC3)nn1-c1cc(N3CC[C@H](O)C3)ccc1C(F)(F)F)CCC2` [Example 1-19, 4-cyclopentyl-2-[5-((S)-3-hydroxy-pyrrolidin-1-yl)-2-trifluoromethyl-phenyl]-2,5,6,7-tetrahydro-cyclopenta[d]pyridazin-1-one]: 5.00 to 7.00.

As for `COc1cc(OC)cc(-c2nn(-c3cc(NCCC(=O)N(C)C)ccc3C(F)(F)F)c(=O)c3c2CCC3)c1` [Example 139, 3-{3-[4-(3,5-dimethoxy-phenyl)-1-oxo-1,5,6,7-tetrahydro-cyclopenta[d]pyridazin-2-yl]-4-trifluoromethyl-phenylamino}-N,N-dimethyl-propionamide], the pIC50 was above 7.00. The same measure for `O=c1c2c(c(-c3ccc(F)cc3)nn1-c1cc(N3CC[C@H](O)C3)ccc1C(F)(F)F)CCC2` [Example 76, 4-(4-fluoro-phenyl)-2-[5-((S)-3-hydroxy-pyrrolidin-1-yl)-2-trifluoromethyl-phenyl]-2,5,6,7-tetrahydro-cyclopenta[d]pyridazin-1-one]: above 7.00; for `COc1cc(OC)cc(-c2nn(-c3cc(NCc4ccccc4)ccc3C(F)(F)F)c(=O)c3c2CCC3)c1` [Example 135, 2-(5-benzylamino-2-trifluoromethyl-phenyl)-4-(3,5-dimethoxy-phenyl)-2,5,6,7-tetrahydro-cyclopenta[d]pyridazin-1-one]: 5.00 to 7.00; for `COc1cc(OC)cc(-c2nn(-c3cc(N4CC[C@H](O)C4)ccc3C(F)(F)F)c(=O)c3c2CC(C)N3)c1` (stereo partly drawn) [Example 20, 4-(3,5-dimethoxy-phenyl)-6-[5-((S)-3-hydroxy-pyrrolidin-1-yl)-2-trifluoromethyl-phenyl]-2-methyl-1,2,3,6-tetrahydro-pyrrolo[2,3-d]pyridazin-7-one]: above 7.00. In the case of `COc1cc(OC)cc(-c2nn(-c3cc(NCCN(C)C(=O)OC(C)(C)C)ccc3C(F)(F)F)c(=O)c3c2CCC3)c1` [Example 156, (2-{3-[4-(3,5-dimethoxy-phenyl)-1-oxo-1,5,6,7-tetrahydro-cyclopenta[d]pyridazin-2-yl]-4-trifluoromethyl-phenylamino}-ethyl)-methyl-carbamic acid tert-butyl ester], the pIC50 is 5.00 to 7.00. Regarding `COc1cc(OC)cc(-c2nn(-c3cc(N(C)CCO)ccc3C(F)(F)F)c(=O)c3c2CCC3)c1` [Example 92, 4-(3,5-dimethoxy-phenyl)-2-{5-[(2-hydroxy-ethyl)-methyl-amino]-2-trifluoromethyl-phenyl}-2,5,6,7-tetrahydro-cyclopenta[d]pyridazin-1-one], the pIC50 is above 7.00.

For the compound `COc1cc(OC)cc(-c2nn(-c3cccc(N4CC[C@H](O)C4)c3)c(=O)c3c2CCN3)c1` [Example 52, 4-(3,5-dimethoxy-phenyl)-6-[3-((S)-3-hydroxy-pyrrolidin-1-yl)-phenyl]-1,2,3,6-tetrahydro-pyrrolo[2,3-d]pyridazin-7-one], the pIC50 was 5.00 to 7.00.

`COc1cc(OC)cc(-c2nn(-c3cc(N4CCC4)ccc3C(F)(F)F)c(=O)c3c2CCC3)c1` [Example 71, 2-(5-azetidin-1-yl-2-trifluoromethyl-phenyl)-4-(3,5-dimethoxy-phenyl)-2,5,6,7-tetrahydro-cyclopenta[d]pyridazin-1-one] gave a pIC50 above 7.00. The same measure for `COc1cc(OC)cc(-c2nn(-c3cc(N4CC[C@H](O)C4)ccc3C(F)(F)F)c(=O)c3c2CCN3CC(N)=O)c1` [Example 28, 2-{4-(3,5-dimethoxy-phenyl)-6-[5-((S)-3-hydroxy-pyrrolidin-1-yl)-2-trifluoromethyl-phenyl]-7-oxo-2,3,6,7-tetrahydro-pyrrolo[2,3-d]pyridazin-1-yl}-acetamide]: above 7.00; for `CCN(C)c1ccc(C(F)(F)F)c(-n2nc(-c3cc(OC)cc(OC)c3)c3c(c2=O)CCC3)c1` [Example 68, 4-(3,5-dimethoxy-phenyl)-2-[5-(ethyl-methylamino)-2-trifluoromethyl-phenyl]-2,5,6,7-tetrahydro-cyclopenta[d]pyridazin-1-one]: above 7.00; for `COc1cc(OC)cc(-c2nn(-c3cc(N4CC[C@H](O)C4)ccc3F)c(=O)c3c2CCC3)c1` [Example 42, 4-(3,5-dimethoxy-phenyl)-2-[2-fluoro-5-((S)-3-hydroxy-pyrrolidin-1-yl)-phenyl]-2,5,6,7-tetrahydro-cyclopenta[d]pyridazin-1-one]: 5.00 to 7.00.

One may read the pIC50 as −log10 of the IC50, conventionally taken in molar units. A higher pIC50 goes with a small IC50.
